Data: PubChem BioAssay (NCI)
Several values for one entry are separate records, joined by “and”; a condition that tells them apart may be missing. Identical values can stand only once.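 Method: 48-hour compound exposure of cells in 96-well plates, five concentrations, linear interpolation of endpoints. Here, GI50 denotes the concentration required for 50% inhibition of growth. TGI: concentration producing complete growth inhibition.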

What was measured:
Experiment in all cases: DTP human tumour cell line panel, 48 h
[1] = tested on: A498 renal
[2] = tested on: HOP-92 NSCLC
[3] = tested on: KM12 colon
[4] = tested on: LOX IMVI melanoma
[5] = tested on: SF-268 CNS
[6] = tested on: SF-539 CNS
[7] = tested on: SK-MEL-2 melanoma
[8] = tested on: SK-MEL-28 melanoma
[9] = tested on: SNB-19 CNS
[10] = tested on: SR leukemia

## N#C/C(=C\c1ccc2[nH]ccc2c1)C(=O)NCCCCNC(=O)/C(C#N)=C/c1ccc2[nH]ccc2c1
[1]
  TGI: > 31.6 µM
[2]
  TGI: > 31.6 µM
[3]
  TGI: > 31.6 µM
[4]
  TGI: > 31.6 µM
[5]
  TGI: > 31.6 µM
[6]
  TGI: > 31.6 µM
[7]
  TGI: > 31.6 µM
[8]
  TGI: > 31.6 µM
[9]
  TGI: > 31.6 µM
[10]
  TGI: > 31.6 µM

## CN1CCN(C2=NC(=O)/C(=C\c3ccc(N(C)C)cc3)S2)CC1
[1]
  GI50: > 100 µM
  TGI: > 100 µM
[3]
  GI50: > 100 µM
  TGI: > 100 µM
[4]
  GI50: 75.1 µM
  TGI: > 100 µM
[5]
  GI50: > 100 µM
  TGI: > 100 µM
[6]
  GI50: > 100 µM
  TGI: > 100 µM
[7]
  GI50: > 100 µM
  TGI: > 100 µM
[8]
  GI50: > 100 µM
  TGI: > 100 µM
[9]
  GI50: > 100 µM
  TGI: > 100 µM
[10]
  GI50: 57.4 µM
  TGI: > 100 µM

## OCc1ccc(N(Cc2ccc(F)cc2)Cc2ccc(F)cc2)cc1Cl
[1]
  GI50: 0.18 µM
  TGI: 0.989 µM
[2]
  GI50: 2.21 µM
  TGI: 10.2 µM
[3]
  GI50: 10.5 µM
  TGI: 23.8 µM
[4]
  GI50: 9.51 µM
  TGI: 23.3 µM
[5]
  GI50: 12.4 µM
  TGI: 26.9 µM
[6]
  GI50: 15.7 µM
  TGI: 30 µM
[7]
  GI50: 10.6 µM
  TGI: 26.9 µM
[8]
  GI50: 13.9 µM
  TGI: 27.6 µM
[9]
  GI50: 12.9 µM
  TGI: 31.6 µM
[10]
  GI50: 5.51 µM
  TGI: 24.4 µM

## COC1=CC(=O)O/C1=C(\OC)C1OC1c1ccccc1 (stereo not drawn)
[1]
  TGI: > 100 µM
[2]
  TGI: > 100 µM
[3]
  TGI: > 100 µM
[4]
  TGI: > 100 µM
[5]
  TGI: > 100 µM
[6]
  TGI: > 100 µM
[7]
  TGI: > 100 µM
[8]
  TGI: > 100 µM
[9]
  TGI: > 100 µM
[10]
  TGI: 93.8 µM

## C[C@@H]1C[C@@H]([C@H](O)CC2CC(=O)NC(=O)C2)C(=O)[C@@H](C)C1
[1]
  GI50: 0.854 µM
[2]
  GI50: 0.178 µM
  TGI: 7.57 µM and 2.05 µM
[3]
  GI50: 0.215 µM
[4]
  GI50: 0.258 µM
  TGI: 3.53 µM and 0.816 µM
[5]
  GI50: 0.264 µM
  TGI: 1.94 µM
[6]
  GI50: 0.214 µM
  TGI: 2.7 µM and 0.838 µM
[7]
  GI50: 0.164 µM
  TGI: 1.07 µM and 3.27 µM
[8]
  GI50: 0.249 µM
  TGI: 2.01 µM and 1.34 µM
[9]
  GI50: 0.282 µM
  TGI: 15.8 µM and > 94.6 µM
[10]
  GI50: 0.28 µM

## CC(C)Cc1cnc(CC(C)C)c(=O)[nH]1
[1]
  TGI: > 100 µM
[2]
  TGI: > 100 µM
[3]
  TGI: > 100 µM
[4]
  TGI: > 100 µM
[5]
  TGI: > 100 µM
[7]
  TGI: > 100 µM
[8]
  TGI: > 100 µM
[9]
  TGI: > 100 µM
[10]
  TGI: > 100 µM

## OCC(O)C(O)C(O)C(/C=N\Nc1ncnc2c(Br)cc(Br)cc12)=N/Nc1ncnc2c(Br)cc(Br)cc12 (stereo not drawn)
[1]
  GI50: 22.5 µM and > 100 µM
  TGI: 38.8 µM and > 100 µM
[3]
  TGI: 70.8 µM and > 100 µM
[4]
  TGI: 31.4 µM and > 100 µM
[5]
  TGI: 11.9 µM and > 100 µM
[6]
  TGI: 33.9 µM
[7]
  TGI: 17.6 µM and > 100 µM
[10]
  TGI: 17.3 µM and > 100 µM

## O=C1c2cccc3cccc(c23)C(=O)N1CCCCCN1CCN(CCN=c2cc3n(-c4ccc(Cl)cc4)c4ccccc4nc-3cc2Nc2ccc(Cl)cc2)CC1
[1]
  GI50: > 50 µM
  TGI: > 50 µM
[2]
  GI50: 7.32 µM
  TGI: 19.7 µM
[3]
  GI50: 11.9 µM
  TGI: 46.3 µM
[4]
  GI50: 9.83 µM
  TGI: 29.8 µM
[5]
  GI50: 23.1 µM
  TGI: > 50 µM
[6]
  GI50: 12.1 µM
  TGI: 31 µM
[8]
  GI50: 18.9 µM
  TGI: > 50 µM
[9]
  GI50: 23 µM
  TGI: > 50 µM
[10]
  GI50: 7.54 µM
  TGI: 25.4 µM

## CC(C)(C)C#COC(=O)c1ccccc1
[1]
  TGI: > 100 µM
[3]
  TGI: > 100 µM
[4]
  TGI: > 100 µM
[5]
  TGI: > 100 µM
[6]
  TGI: > 100 µM
[7]
  TGI: > 100 µM
[9]
  TGI: > 100 µM
[10]
  TGI: > 100 µM

## O=C(c1ccccc1)C1N=NN(Cc2ccccc2[N+](=O)[O-])C1C(=O)c1ccccc1 (stereo not drawn)
[2]
  TGI: > 100 µM
[3]
  TGI: > 100 µM
[4]
  TGI: > 100 µM
[5]
  TGI: > 100 µM
[7]
  TGI: > 100 µM
[8]
  TGI: > 100 µM
[9]
  TGI: > 100 µM
[10]
  TGI: > 100 µM

## O=c1c(Cc2ccccc2)c(O)cc2n1CCC2
[1]
  TGI: > 100 µM
[2]
  TGI: > 100 µM
[3]
  TGI: > 100 µM
[4]
  TGI: > 100 µM
[5]
  TGI: > 100 µM
[6]
  TGI: > 100 µM
[8]
  TGI: > 100 µM
[9]
  TGI: > 100 µM
[10]
  TGI: > 100 µM

## COC(=O)C1CC(c2ccc(OC)c(OC)c2)OC1=O (mixture of isomers)
[1]
  TGI: > 100 µM
[2]
  TGI: > 100 µM
[3]
  TGI: > 100 µM
[4]
  TGI: > 100 µM
[5]
  TGI: > 100 µM
[6]
  TGI: > 100 µM
[8]
  TGI: > 100 µM
[9]
  TGI: > 100 µM
[10]
  TGI: > 100 µM

## c1ccc2c(c1)[nH]c1c2nc2ccccn21
[1]
  TGI: > 100 µM
[2]
  TGI: > 100 µM
[3]
  TGI: > 100 µM
[5]
  TGI: > 100 µM
[6]
  TGI: > 100 µM
[7]
  TGI: > 100 µM
[8]
  TGI: > 100 µM
[9]
  TGI: > 100 µM
[10]
  TGI: > 100 µM

## COc1ccc(-c2ccc(CC(=O)O)cc2)cc1OC
[1]
  TGI: > 100 µM
[2]
  TGI: > 100 µM
[3]
  TGI: > 100 µM
[5]
  TGI: > 100 µM
[7]
  TGI: > 100 µM
[8]
  TGI: > 100 µM
[9]
  TGI: > 100 µM
[10]
  TGI: > 100 µM

## N#Cc1nc(CCc2nc(C#N)c(N)o2)oc1N
[2]
  TGI: > 10 µM
[3]
  TGI: > 10 µM
[4]
  TGI: > 10 µM
[5]
  TGI: > 10 µM
[6]
  TGI: > 10 µM
[8]
  TGI: > 10 µM
[9]
  TGI: > 10 µM
[10]
  TGI: > 10 µM

## O=C1c2ccccc2-c2nc3ccncc3n21
[2]
  TGI: > 100 µM
[3]
  TGI: > 100 µM
[5]
  TGI: > 100 µM
[6]
  TGI: > 100 µM
[7]
  TGI: > 100 µM
[8]
  TGI: > 100 µM
[9]
  TGI: > 100 µM
[10]
  TGI: > 100 µM

## COc1cc(C)c2c(c1)CN1CN2Cc2cc(OC)cc(C)c21
[2]
  TGI: > 100 µM
[3]
  TGI: > 100 µM
[4]
  TGI: > 100 µM
[5]
  TGI: > 100 µM
[6]
  TGI: > 100 µM
[7]
  TGI: > 100 µM
[10]
  TGI: > 100 µM

## COc1ccc(-n2cc(-c3ccc(OC)c(OC)c3)[nH]c2=O)cc1
[1]
  GI50: > 100 µM
  TGI: > 100 µM
[2]
  GI50: > 100 µM
  TGI: > 100 µM
[3]
  GI50: > 100 µM
  TGI: > 100 µM
[4]
  GI50: > 100 µM
  TGI: > 100 µM
[5]
  GI50: > 100 µM
  TGI: > 100 µM
[7]
  GI50: > 100 µM
  TGI: > 100 µM
[8]
  GI50: > 100 µM
  TGI: > 100 µM
[9]
  GI50: > 100 µM
  TGI: > 100 µM
[10]
  GI50: > 100 µM
  TGI: > 100 µM

## COc1ccc(-c2ccc(C3CC(c4ccccc4)=NN3)o2)c([N+](=O)[O-])c1 (stereo not drawn)
[1]
  GI50: 68.4 µM
  TGI: > 100 µM
[2]
  GI50: 24.8 µM
  TGI: 68.2 µM
[3]
  GI50: 27.3 µM
  TGI: > 100 µM
[5]
  GI50: 37.8 µM
  TGI: > 100 µM
[6]
  GI50: 64.7 µM
  TGI: > 100 µM
[8]
  GI50: > 100 µM
  TGI: > 100 µM
[9]
  GI50: 86.2 µM
  TGI: > 100 µM
[10]
  GI50: 30.3 µM
  TGI: 87.9 µM
